Source: PMC8032764 (Scientific Reports, 2021)
Like-named read-outs stand apart in the source and are kept apart here.

Columns and labels:
human GABAA α1β2γ2 = test system: T1, human GABAA α1β2γ2; test: Two-electrode voltage clamp in Xenopus oocytes, current induced by EC10 of GABA; format: cell-based; conditions: 3000 nM
T1 construct: expressed in transfected cells; host or cells: Xenopus laevis oocytes, cRNA injection
Description: (§1) Freshly prepared oocytes of maturation stage VI were bought from Ecocyte Bioscience (Castrop-Rauxel, Germany) and, after overnight delivery, plated into 96-well plates (Greiner no. 651101) for microinjection on a ROBOOCYTE R16 system (Multichannel Systems MCS GmbH, Reutlingen, Germany). Each oocyte was injected with roughly 50 nL of RNA solution. The solution for expressing receptors composed of the human α1, β2 and γ2 subunits contained 3 pg/nL of α1 and β2 RNA and 15 pg/nL of γ2 RNA. The solution for expressing human α2β3γ2 receptors contained 2.5 pg/nL of α2 and β3 RNA, 5 pg/nL of γ2 RNA and 10 pg/nL of GABARAP RNA. The solution for expressing human α3β3γ2 receptors contained 1.3 pg/nL of α3 and β3 RNA and 6.5 pg/nL of γ2 RNA. The solution for expressing human α5β3γ2 receptors contained 1.3 pg/nL of α5 and β3 RNA and 13 pg/nL of γ2 RNA. GABARAP was added to the α2β3γ2 subunit mixture since the expression of γ2 would be low otherwise, as indicated by a weak effect of β-CCM[60]. After the microinjection the oocytes were kept at 20 °C temperature until the electrophysiological experiment. Experiments were done 3 to 5 days later on the ROBOOCYTE instrument which employs the two-microelectrode voltage-clamp technique for membrane voltage control and current measurement. […] During current recording and compound testing the cell membrane was constantly clamped to − 80 mV. Current signals were recorded and stored on a PC-type computer using the ROBOOCYTE software.
(§2) During the microinjection and up to the electrophysiological experiment the oocytes were kept in a solution containing 88 mM NaCl, 1 mM KCl, 2.5 mM NaHCO3, 10 mM HEPES (AppliChem GmbH, Darmstadt, Germany), 0.82 MgSO4, 0.33 mM Ca(NO3)2, 0.33 mM CaCl2, 100 U/mL penicillin (GIBCO, ThermoFisher Scientific) and 100 µg/mL streptomycine (GIBCO, ThermoFisher Scientific). The pH was adjusted to 7.5. During the experiment the voltage-clamped oocyte was constantly superfused by a solution containing 90 mM NaCl, 1 mM KCl, 5 mM HEPES (AppliChem), 1 mM MgCl2 and 1 mM CaCl2 (pH 7.4). GABA and test compounds were added to this solution. GABA concentrations were chosen according to previously determined concentration–response relations for the different human GABAA receptor subunit combinations. Concentrations evoking approximately 10% of a maximal response were selected, i.e., 8 µM for α1β2γ2, 6 µM for α2β3γ2, 10 µM for α3β3γ2 and 5 µM for α5β3γ2. Solutions containing GABA or test compounds were freshly prepared at least every second day. […] Compounds were further diluted in DMSO and finally in extracellular saline to reach a DMSO concentration of 0.1%. The same amount of DMSO was added to the control solutions without test compounds. […]

human GABAA α2β3γ2 = test system: T2, human GABAA α2β3γ2; test: as above; format: cell-based; conditions: 3000 nM
T2 construct: expressed in transfected cells; host or cells: Xenopus laevis oocytes, cRNA injection
Description: as §1, §2

human GABAA α3β3γ2 = test system: T3, human GABAA α3β3γ2; test: as above; format: cell-based; conditions: 3000 nM
T3 construct: expressed in transfected cells; host or cells: Xenopus laevis oocytes, cRNA injection
Description: as §1, §2

Adenosine A2A = test system: T4, Adenosine A2A; test: Cerep binding; set-up: species or system human; conditions: 10 μM; [3H]CGS 21680; hum. recomb. (HEK-293)
T4 construct: host or cells: HEK-293

Muscarinic M2 = test system: T5, Muscarinic M2; test: Cerep binding; set-up: species or system human; conditions: 10 μM; [3H]AF-DX 384; hum. recomb. (CHO)
T5 construct: host or cells: CHO

Muscarinic M4 = test system: T6, Muscarinic M4; test: Cerep binding; set-up: species or system human; conditions: 10 μM; [3H]4-DAMP; hum. recomb. (CHO)
T6 construct: host or cells: CHO

Nociceptin (ORL1) = test system: T7, Nociceptin (ORL1); test: Cerep binding; set-up: species or system human; conditions: 10 μM; [3H]nociceptin; hum. recomb. (HEK-293)
T7 construct: host or cells: HEK-293

[1] = Plasma levels, parallel dose groups of water maze; format: in vivo, rat; conditions: 10 mg/kg p.o., 30 min
Description: Plasma samples were collected and frozen at − 80 °C for later analysis.
The calibration range was from 1.0 to 5000 ng/mL. After protein precipitation with ethanol, the sample solution was injected onto a Gemini C18 trapping column (2 × 10 mm; Phenomenex, Torrance, CA, USA) and polar endogenous compounds and salts were rinsed off. Analytical separation was performed on an Atlantis T3 column (2.1 × 50 mm) (Waters, Milford, MA, USA), using methanol/water containing 0.1% formic acid as mobile phase. A drug analogue was used as an internal standard.

GABAA-α5 receptors = test: Receptor occupancy estimated from free plasma concentrations, object retrieval; format: in vivo, Macaca fascicularis
Source text: Free plasma concentrations were used to estimate receptor occupancy.

healthy subjects = test: Safety in healthy volunteers in the PET and EEG studies; format: in vivo, human
[2] = Pharmacokinetics, single intravenous dosing; format: in vivo; conditions: Wistar, rat, plasma, 4.3 mg/kg i.v., 2 male
[3] = Pharmacokinetics, single intravenous dosing; format: in vivo, NHP, Cynomolgus macaque; conditions: cynomolgus monkey, plasma, 1.0 mg/kg i.v.
dogs = test: GLP toxicology and safety pharmacology, daily oral administration; format: in vivo, dog

With `Cc1onc(-c2ccc(F)cc2)c1COc1ccc(C(=O)N2CCS(=O)(=O)CC2)cn1` [basmisanil] the inhibition (human GABAA α1β2γ2) was < 10%, the inhibition (human GABAA α2β3γ2) was < 10% and the inhibition (human GABAA α3β3γ2) was < 10%. For the same molecule, the “% Inhibition” value (Adenosine A2A) was 9%, the “% Inhibition” value (Muscarinic M2) was 13% and the “% Inhibition” value (Muscarinic M4) was -4%. For the same molecule, the “% Inhibition” value (Nociceptin (ORL1)) was -4%, the maximal plasma level [1] was 903 ± 13 ng/mL and the estimated receptor occupancy (GABAA-α5 receptors; 3 mg/kg p.o.) was “about 30%”. The estimated receptor occupancy (GABAA-α5 receptors; 10 mg/kg p.o.) was “around 50%”, the safety and tolerability (healthy subjects; PET and EEG studies) was “safe and well tolerated” and the adverse events (healthy subjects; any cohort) was “no severe adverse events”. It also gave a half-life [2] of 1.2 h, a clearance ([2]; read-out: Total CL) of 54 mL/min/kg and a Vd ([2]; read-out: Vss) of 2.9 L/kg. It also gave a half-life ([3]; n=3) of 4.5 ± 1.8 h, a clearance ([3]; n=3, read-out: Total CL) of 3 ± 0.7 mL/min/kg and a Vd ([3]; n=3, read-out: Vss) of 0.9 ± 0.6 L/kg. For the same molecule, the “exposures with lack of clinical signs and convulsion symptoms” value (dogs; GLP toxicology studies in dogs) was “up to 4590 ng/mL” and the “convulsions and EEG alterations” value (dogs; daily oral, supra-therapeutic plasma exposures, up to 39 weeks) was “no convulsions and no EEG alterations”.
